Assay results reported in patent US20220412957A1, “METHODS OF TREATING CANCER PATIENTS WITH RAS NODE OR RTK TARGETED THERAPEUTIC AGENTS” (Celcuity Inc., priority 2019, published 2022).

Tested on: LPA1-initiated signaling in HER2-negative/PI3K//ERK/MEK/RAF/mTOR Wild-Type breast tumor cell samples
Assay: impedance biosensor cell adhesion test, LPA1 agonist with RAS node inhibitors (Example 4)
Type: cell-based, human
Set-up: unit not given here
Excerpt: Tissue and cell samples: 28 HER2-negative/PI3K//ERK/MEK/RAF/mTOR Wild-Type breast tumor cell samples were studied. […] From these responses, the net amount of LPA1-initiated signaling involving PI3K-α, Class 1 PI3K-isoforms (pan-PI3K), Class 1 PI3K-isoforms and mTOR, Bcl-xL and Bcl-2, MEK, ERK, and RAF, individually and in combination, was quantified.
In this example, 14 of the 28 patient cell samples tested recorded output values with at least one of the targeted therapeutic(s) above 250. […] Five patients would be selected to receive treatment with gedatolisib, four would be selected to receive treatment with copanlisib, one patient would be selected to receive treatment with PLX7904, six patients would be selected to receive treatment with gedatolisib and PLX7904, seven patients would be selected to receive treatment with gedatolisib and ravoxertinib, nine patients would be selected to receive treatment with gedatolisib and trametinib, and 14 patients would be selected to receive treatment with gedatolisib and navitoclax.

[1] = sample C1838.01.155, cut-off 250
[2] = sample C1986.01.10, cut-off 250
[3] = sample C2090.01.14, cut-off 250
[4] = sample C2169.01.10, cut-off 250
[5] = sample C3091.01.13, cut-off 250
[6] = sample C3132.01.13, cut-off 250
[7] = sample C3311.01.10, cut-off 250
[8] = sample CL021.01.869, cut-off 250

Compound	output value (sample C1816.01.6, cut-off 250)	output value [1]	output value (sample C1918.01.5, cut-off 250)	output value [2]	output value [3]	output value (sample C2167.01.4, cut-off 250)	output value [4]	output value (sample C2483.01.6, cut-off 250)	output value (sample C2693.01.2, cut-off 250)	output value (sample C2697.01.4, cut-off 250)	output value (sample C2729.01.4, cut-off 250)	output value (sample C2748.01.4, cut-off 250)	output value (sample C2792.01.2, cut-off 250)	output value (sample C2794.01.9, cut-off 250)	output value (sample C2868.01.6, cut-off 250)	output value (sample C2991.01.7, cut-off 250)	output value [5]	output value (sample C3101.01.6, cut-off 250)	output value [6]	output value [7]	other results
CN(C)C1CCN(C(=O)c2ccc(NC(=O)Nc3ccc(-c4nc(N5CCOCC5)nc(N5CCOCC5)n4)cc3)cc2)CC1 [gedatolisib]	84	50	206	101	137	132	242	130	86	103	103	72	137	38	79	396	204	149	65	216	output value (sample C3337.01.6, cut-off 250): 336; output value (sample C3377.01.2, cut-off 250): 113; output value (sample C3507.01.5, cut-off 250): 70; output value (sample C3730.01.9, cut-off 250): 494; output value (sample C3873.01.4, cut-off 250): 298; output value (sample C3957.01.6, cut-off 250): 74; output value (sample C4005.01.2, cut-off 250): 216; output value [8]: 353
C[C@H](Nc1ccc2c(c1)OCCn1cc(N3C(=O)OC[C@H]3C(F)F)nc1-2)C(N)=O [GDC-0077]	−22	38	38	62	36	−12	34	113	−24	31	34	65	43	−89	−24	55	60	0	0	14	output value (sample C3337.01.6, cut-off 250): 139; output value (sample C3377.01.2, cut-off 250): −161; output value (sample C3507.01.5, cut-off 250): −58; output value (sample C3730.01.9, cut-off 250): −113; output value (sample C3873.01.4, cut-off 250): 122; output value (sample C3957.01.6, cut-off 250): −10; output value (sample C4005.01.2, cut-off 250): −12; output value [8]: −466
CC(=O)Nc1cccc(-n2c(=O)n(C3CC3)c(=O)c3c(Nc4ccc(I)cc4F)n(C)c(=O)c(C)c32)c1 [trametinib]	29	31	65	161	19	−7	67	132	−60	72	26	79	48	−14	−43	−70	50	101	10	94	output value (sample C3337.01.6, cut-off 250): 113; output value (sample C3377.01.2, cut-off 250): 149; output value (sample C3507.01.5, cut-off 250): −29; output value (sample C3730.01.9, cut-off 250): −204; output value (sample C3873.01.4, cut-off 250): −72; output value (sample C3957.01.6, cut-off 250): 10; output value (sample C4005.01.2, cut-off 250): 36; output value [8]: −226
